These results are taken from ChEMBL document CHEMBL5537109, “Natural products as potential lead compounds to develop new antiviral drugs over the past decade” (Eur J Med Chem, 2023).

Numbered stars: 1 amine (or outer) side, 2 acyl side, 3 side chain; on linkers, the order of the positions; unused ones are H or OH. Bridge positions count the residues as written; N and C are the ends. Square brackets hold non-standard residues; d marks the D form. Peptide text beside a SMILES is read from it. X2 = CCCCCCCCC[C@@H](CCCC(=O)[*:1])O[*:2]; d(aThr) = C[C@@H](O)[C@@H](N)C(=O)O; aIle = CC[C@@H](C)[C@H](N)C(=O)O

Series [1] deals with Human immunodeficiency virus 1. Nature of the series: Antiviral activity against HIV-1 harboring reverse transcriptase infected in human MT4 cells assessed as reduction in virus-induced cytopathic effect. Type of series: functional, organism-based. As to conditions: Human immunodeficiency virus 1, MT4. Background: Damage to the host cells serves as the signal in cytopathic effect assays.

Series [2] has as its system RAW264.7. Nature of the series: Cytotoxicity against mouse RAW264.7 cells assessed as reduction in cell viability incubated for 24 hrs by CCK-8 method. Type of series: functional. (Tetrazolium dyes change colour on reduction, which living cells bring about.)
Series [3] in a line: Cytotoxicity against human C8166 cells assessed as inhibition of cell growth incubated for 48 hrs by MTT assay. Format: toxicity, cell-based.
In series [4] the test system is Human immunodeficiency virus 1. Nature of the series: Anti-HIV activity against HIV-1 IIIB infected in human C8166 cells assessed as inhibition of virus-induced cytopathic effect by MTT assay. Format: functional, organism-based. As to conditions: Human immunodeficiency virus 1, IIIB.
For series [5], the system named is Influenza A virus. Nature of the series: Antiviral activity against influenza A virus A/Hong Kong/1/68 (HK1, H3N2) infected in dog MDCK cells assessed as cytopathic effect. Format: functional, organism-based.
For series [6], the system named is Influenza A virus. Nature of the series: Antiviral activity against influenza A virus H5N1 infected in dog MDCK cells assessed as viral growth inhibition. Type of series: functional, organism-based.
In series [7] the test system is Influenza A virus. Nature of the series: Antiviral activity against influenza A virus H1N1(A/PR/8/34) infected in MDCK cells assessed as inhibition of cytopathic effect incubated for 48 hrs by MTT assay. Format: functional, organism-based.
Series [8] in a line: Inhibition of Influenza A virus A/California/04/2009 (H1N1) N-terminal his tagged domain of PA endonuclease expressed in Escherichia coli BL21 (DE3) cells.
Series [9] can be described thus: Cytotoxicity against MDCK cells assessed as inhibition of cell growth incubated for 48 hrs by MTT assay. Format: toxicity, cell-based, Canis lupus familiaris. The settings on record: dog.
Series [10] deals with Human immunodeficiency virus 1. Nature of the series: Antiviral activity against wild-type HIV-1 NL4-3 infected in human MT4 cells assessed as inhibition of viral growth by measuring reduction in p24 antigen level incubated for 3 to 7 days by ELISA analysis. As to conditions: Human immunodeficiency virus 1, NL4-3, MT4. Type of series: functional, organism-based. Background: ELISA stands for enzyme-linked immunosorbent assay.

The nature of series [11]: Cytotoxicity against human C8166 cells assessed as inhibition of cell growth by MTT assay. Format: toxicity, cell-based.
Series [12] has as its system Human alphaherpesvirus 1. Nature of the series: Antiviral activity against HSV-1 assessed as inhibition of viral growth. Format: functional, organism-based.
Series [13] is described as follows: Cytotoxicity against African green monkey Vero cells assessed as reduction in cell viability measured after 72 hrs by MTT assay. Type of series: toxicity, cell-based. As to conditions: chlorocebus sabaeus.
The subject of series [14] is Human alphaherpesvirus 1. Nature of the series: Antiviral activity against HSV-1 KOS infected in African green monkey Vero cells assessed as reduction in virus induced cytopathogenicity by plaque reduction assay. Type of series: functional, organism-based. As to conditions: Human alphaherpesvirus 1, KOS.
The nature of series [15]: Cytotoxicity against African green monkey Vero E6 cells assessed as reduction in cell growth incubated for 24 hrs by WST-8 assay. Format: toxicity, cell-based, Vero C1008. The settings on record: chlorocebus sabaeus.
Series [16] deals with SARS-CoV-2. Nature of the series: Antiviral activity against SARS-CoV-2 NVDBB-2220 infected in African green monkey Vero cells assessed as reduction in virus-induced cytopathic effect incubated for 5 days by microscopic analysis. Type of series: functional, organism-based. The settings on record: Severe acute respiratory syndrome coronavirus 2, NVDBB-2220, Vero, 120 h.
For series [17], the system named is Huh-7. Nature of the series: Cytotoxicity against human Huh-7 cells assessed as reduction in cell viability incubated for 72 hrs by MTT assay. Type of series: functional.
Series [18] deals with HEK-293T. Nature of the series: Cytotoxicity against human HEK293T cells assessed as cell growth inhibition measured after 72 hrs by MTT assay. Format: functional.
Series [19] concerns SARS-CoV-2. Nature of the series: Antiviral activity against SARS-CoV-2 infected in African green monkey Vero cells assessed as reduction in viral replication. Format: functional, organism-based. The settings on record: Severe acute respiratory syndrome coronavirus 2, Vero.
Series [20] can be described thus: Cytotoxicity against African green monkey Vero cells assessed as reduction in cell viability measured after 72 hrs by MTS assay. As to conditions: chlorocebus sabaeus. Format: toxicity, cell-based.

Consider `C=C(C)[C@@]1(OC(=O)c2ccccc2)[C@H](OC(C)=O)[C@@H]2[C@H](OC(C)=O)[C@@]3(C)O[C@@]4([C@@H]3OC(C)=O)[C@@H](OC(=O)c3ccccc3)[C@@H](C)C[C@H]4[C@@]2(O)[C@H](C)[C@@H]1OC(C)=O`, for which the concentration for a half-maximal effect (EC50) – broadly, the concentration giving half of the maximal effect – in series [1] was determined as 0.18 µM. Moreover, the CC50 (in general, the concentration that lowers cell viability or growth by half) in [2] was more than 200 µM.

Consider `COc1cc(OC)c2c(c1OC)C[C@H]1NCCc3cc4c(c-2c31)OCO4`, for which the CC50 at 48 h in series [3] is 43.6 µM. In [4], the EC50 was 5.8 µM.

With `O=C(O[C@H]1[C@H](Oc2ccc(O)cc2C(=O)O)O[C@H](CO)[C@@H](O)[C@@H]1OC(=O)c1cc(O)c(O)c(O)c1)c1cc(O)c(O)c(O)c1`, the EC50 amounted to 28.2 µM in series [5] and 30.7 µM in series [7]. For the same compound, the IC50 (in general, the concentration needed to halve the response being measured) was 24.6 µM in series [6] and 30.7 µM in series [8]. Also, the cytotoxic concentration (CC50) at 48 h in [9] is more than 1000 µM.

Turning to `O=C1C=C2C[C@H](O[C@H]3C[C@@]45OC(=O)C=C4C[C@@H]3N3CCCC[C@H]35)[C@@H]3C[C@@]2(O1)[C@H]1CCCN31`, the half-maximal effective concentration (EC50) in series [10] came to 120 µM.

As for `C=C(C)[C@@]1(OC(C)=O)[C@H](OC(C)=O)[C@@H]2[C@H](OC(C)=O)[C@@]3(C)O[C@@]4([C@@H]3O)[C@@H](OC(=O)c3ccccc3)[C@@H](C)C[C@H]4[C@@]2(O)[C@H](C)[C@@H]1OC(=O)c1ccccc1`, the EC50 in series [1] was 0.21 µM. Also, the CC50 in [2] was more than 200 µM.

`C=C(C)[C@]12C[C@@H](COC(C)=O)[C@@]34OC5(O[C@@H]1[C@@H]3[C@@H]1O[C@]1(CO)[C@@H](O)[C@@]1(O)[C@H]4[C@H]([C@H](C)[C@@H]1OC(=O)c1ccccc1)[C@H](C)C[C@H](OC(=O)c1ccccc1)[C@H](OC(=O)c1ccccc1)CCC[C@H]5O)O2`: the EC50 in series [10] was determined as 0.00025 µM.

Regarding `O=C1C=C2[C@H]3C=CC[C@]2(O1)[C@H]1CCCCN31`, in [10], the EC50 was found to be 45 µM.

Take `O=C(OC[C@H]1O[C@@H](Oc2ccc(O)cc2C(=O)O)[C@H](O)[C@@H](OC(=O)c2cc(O)c(O)c(O)c2)[C@@H]1O)c1cc(O)c(O)c(O)c1`: the EC50 in [5] was 33.3 µM; in series [7], 20.2 µM. The IC50 in series [6] stood at 11.6 µM; in series [8] it was 29.2 µM. For the same compound, the 50% cytotoxic concentration (CC50) at 48 h in [9] turned out to be 964 µM.

Take `C=C(C)[C@@]1(OC(=O)c2ccccc2)[C@H](OC(C)=O)[C@@H]2[C@H](OC(C)=O)[C@@]3(C)O[C@@]4([C@@H]3O)[C@@H](OC(=O)c3ccccc3)[C@@H](C)C[C@H]4[C@@]2(O)[C@H](C)[C@@H]1OC(C)=O`: the EC50 in series [1] was 0.095 µM. Besides, the CC50 in [2] was more than 200 µM.

As to `C=CC(C)(C)c1cc2cc3c(c(CC=C(C)C)c2oc1=O)O[C@H](C(C)(C)O)C3`, the CC50 in [11] was more than 200 µM.

With `CCCCCCCCC[C@H]1CCCC(=O)N[C@H]([C@@H](C)O)C(=O)N[C@H](C)C(=O)N2CCC[C@H]2C(=O)N[C@@H](CCC(N)=O)C(=O)N[C@H](Cc2ccc(O)cc2)C(=O)N[C@@H]([C@H](C)CC)C(=O)O1` ([d(aThr)][dA]PQ[dY][aIle]; linker N-C via X2), the EC50 in [12] was found to be 14 µM.

`COc1ccc2c(c1)N=C1c3cc(-c4nccc5c4[nH]c4cc(OC)ccc45)c(C)n3CCC12O` (racemic): in [13], the CC50 at 72 h stood at 74.2 µM. Moreover, the EC50 in series [14] was 2.12 µM.

With `O=C1c2c(O)cc(O)cc2O[C@H](c2cc(O)c(O)c(O)c2)[C@H]1O` [AMPELOPSIN], in series [15], the CC50 at 24 h was more than 200 µM.

For the compound `C=C1C(=O)O[C@@]23[C@H]1CC[C@@H](C)[C@@H]2CC[C@@]1(C)O[C@@H]31` [ARTEANNUIN B], the EC50 in series [16] is 10.3 µM.

Turning to `C[C@H]1[C@H](OC(=O)CCC(=O)O)O[C@@H]2O[C@@]3(C)CC[C@H]4[C@H](C)CC[C@@H]1[C@@]24OO3` [ARTESUNATE], the EC50 in series [16] turned out to be 13 µM.

As to `O=c1cc(-c2ccccc2)oc2cc(O)c(O)c(O)c12` [BAICALEIN], in series [15], the CC50 at 24 h was more than 200 µM.

With `CC[C@H]1CN2CCc3cc(OC)c(OC)cc3[C@@H]2C[C@@H]1C[C@H]1NCCc2cc(O)c(OC)cc21` [CEPHAELINE], the half-maximal cytotoxic concentration (CC50) is 3.03 µM in series [17] and 2 µM in [18]. Also, the EC50 in [19] worked out at 0.0123 µM. The CC50 at 72 h in series [20] came out at 46.3 µM.

On to `CC[C@H]1CN2CCc3cc(OC)c(OC)cc3[C@@H]2C[C@@H]1C[C@H]1NCCc2cc(OC)c(OC)cc21` [EMETINE], for which the CC50 in series [17] turned out to be 33.4 µM; in series [18], 37.8 µM. Further, in [19], the EC50 came to 7.71 µM. Moreover, in series [20], the CC50 at 72 h was found to be 2.17 µM.

Regarding `O[C@H]1[C@H]2c3cc4c(cc3CN3CCC(=C[C@@H]1O)[C@H]23)OCO4` [LYCORINE], the CC50 in series [17] was found to be 0.834 µM; in series [18] it was 1.04 µM. Also, in series [19], the EC50 turned out to be 0.439 µM. In addition, in series [20], the CC50 at 72 h was more than 1000 µM.

Turning to `O=c1c(O)c(-c2cc(O)c(O)c(O)c2)oc2cc(O)cc(O)c12` [MYRICETIN], in series [15], the CC50 at 24 h was more than 200 µM.
